The record followed here is PubChem BioAssay (NCI).

Structures are written as SMILES.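 A five-concentration, 48-hour dose response in 96-well plates underlies each endpoint, interpolated linearly between surrounding concentrations. Here, GI50 denotes the concentration required for 50% inhibition of growth. The concentration for full growth arrest is given as TGI.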

Some test systems named below: A549 NSCLC; HOP-92 NSCLC; K-562 leukemia; SF-268 CNS; SF-539 CNS; SK-MEL-5 melanoma; SNB-75 CNS; UACC-257 melanoma.
Holding throughout (test): growth of human tumour cells (NCI), 48 h

Regarding `CCN(C(=O)CN1CCN(c2cc3c(cc2F)c(=O)c(C(=O)O)cn3CC)CC1)c1nc(-c2ccccc2)cs1`, the GI50 was 0.365 µM in the assay on A549 NSCLC; 0.23 µM in the assay on HOP-92 NSCLC; 0.337 µM with K-562 leukemia; 0.43 µM in the assay with SF-268 CNS; 0.337 µM in the assay on SF-539 CNS; 0.238 µM with SK-MEL-5 melanoma. Further, the GI50 was 0.32 µM with SNB-75 CNS and 0.307 µM in the assay on UACC-257 melanoma. Also, the TGI was more than 100 µM in the assay with A549 NSCLC; 0.585 µM with HOP-92 NSCLC; more than 100 µM in the assay on K-562 leukemia; more than 100 µM in the assay on SF-268 CNS; more than 100 µM with SF-539 CNS; 0.551 µM in the assay with SK-MEL-5 melanoma. For the same molecule, the results for the TGI in the assay on SNB-75 CNS and in the assay with UACC-257 melanoma were more than 100 µM and 1.55 µM, respectively.

As to `O=C(Nc1cnc(C(F)(F)F)cn1)c1cc(Cl)ccc1O`, the GI50 in the assay with A549 NSCLC is 0.377 µM; in the assay on HOP-92 NSCLC, 0.188 µM; in the assay on K-562 leukemia it was 0.272 µM; in the assay on SF-268 CNS, 0.296 µM; with SF-539 CNS it was 0.294 µM; in the assay with SK-MEL-5 melanoma, 0.131 µM. For the same molecule, the GI50 in the assay on SNB-75 CNS was 0.194 µM; with UACC-257 melanoma, 0.267 µM. The TGI is more than 100 µM with A549 NSCLC; 0.621 µM with HOP-92 NSCLC; more than 100 µM in the assay with K-562 leukemia; 94.1 µM in the assay with SF-268 CNS; 7.91 µM with SF-539 CNS; 0.336 µM with SK-MEL-5 melanoma. Further, the TGI in the assay with SNB-75 CNS came to 0.835 µM; in the assay with UACC-257 melanoma it was 0.781 µM.

As to `CCOC(=O)C1=C(C)N2C(=NC3=C(CCC/C3=C\c3ccc(Cl)cc3)C2c2ccc(Cl)cc2)S1` (stereo unspecified), the GI50 is 2.08 µM in the assay on A549 NSCLC; 3.45 µM in the assay on K-562 leukemia; 3.24 µM in the assay with SF-268 CNS; 3.88 µM in the assay with SF-539 CNS; 2.93 µM with SK-MEL-5 melanoma; 9.11 µM with SNB-75 CNS. In addition, the GI50 in the assay on UACC-257 melanoma is 2.05 µM. In addition, the TGI is 5.13 µM in the assay with A549 NSCLC; 11.8 µM in the assay with K-562 leukemia; 30.4 µM in the assay on SF-268 CNS; more than 100 µM with SF-539 CNS; 11.4 µM with SK-MEL-5 melanoma; 51.3 µM in the assay on SNB-75 CNS. In the assay with UACC-257 melanoma, this molecule gave a TGI of 5.18 µM.

With `CN(c1ccc(C#N)c(Cl)c1)C1CCC(NC(=O)c2ccc(N3CCN(C4CN(c5ccc6c(c5)C(=O)N(C5CCC(=O)NC5=O)C6=O)C4)CC3)cc2)CC1` (stereo unspecified), the GI50 is more than 100 µM in the assay on A549 NSCLC; 10.2 µM with HOP-92 NSCLC; more than 100 µM in the assay on K-562 leukemia; more than 100 µM in the assay on SF-268 CNS; more than 100 µM with SF-539 CNS; more than 100 µM in the assay on SK-MEL-5 melanoma. Also, the GI50 in the assay on SNB-75 CNS and with UACC-257 melanoma was more than 100 µM throughout. The TGI is more than 100 µM in the assay on A549 NSCLC; 99.8 µM with HOP-92 NSCLC; more than 100 µM in the assay with K-562 leukemia; more than 100 µM with SF-268 CNS; more than 100 µM with SF-539 CNS; more than 100 µM in the assay on SK-MEL-5 melanoma. The TGI in the assay with SNB-75 CNS and in the assay on UACC-257 melanoma was more than 100 µM each time.

Turning to `COc1ccc(Oc2ccccc2NC(=O)CNC(=O)c2cccc3ccccc23)cc1`, the GI50 with A549 NSCLC is 1.25 µM; in the assay on HOP-92 NSCLC, more than 25 µM; in the assay on K-562 leukemia, 0.143 µM; with SF-268 CNS, 2.03 µM; in the assay on SK-MEL-5 melanoma it was 0.377 µM; in the assay on UACC-257 melanoma it was more than 25 µM. Further, the TGI with A549 NSCLC is more than 25 µM; with HOP-92 NSCLC it was more than 25 µM; in the assay on K-562 leukemia it was more than 25 µM; with SF-268 CNS it was more than 25 µM; in the assay with SK-MEL-5 melanoma, 8.41 µM; in the assay with UACC-257 melanoma it was more than 25 µM.

On to `O=C1c2ccccc2C(=O)N1C1(C(=O)NC2(C(=O)O)CCCC2)CCCC1`, for which the TGI in the assay with A549 NSCLC, with K-562 leukemia, in the assay with SF-268 CNS, in the assay with SK-MEL-5 melanoma, in the assay on SNB-75 CNS and with UACC-257 melanoma was more than 100 µM in each case.

With `N.N.N.N.N.O=S(=O)([O-])C(F)(F)F.O=S(=O)([O-])C(F)(F)F.[Os+8]`, the GI50 in the assay on A549 NSCLC was 24.2 µM; with HOP-92 NSCLC, 14.8 µM; in the assay on K-562 leukemia, 7.51 µM; in the assay with SF-539 CNS it was 4.26 µM; in the assay with SK-MEL-5 melanoma, 15 µM; in the assay on SNB-75 CNS, 11.1 µM. For the same molecule, the GI50 in the assay with UACC-257 melanoma is 22.2 µM. The TGI was more than 100 µM in the assay with A549 NSCLC; 35.8 µM with HOP-92 NSCLC; 61.5 µM with K-562 leukemia; 16.2 µM in the assay on SF-539 CNS; 34.1 µM in the assay on SK-MEL-5 melanoma; 28.5 µM in the assay with SNB-75 CNS. The TGI in the assay with UACC-257 melanoma was more than 100 µM.

On to `COc1ccc(-c2ccc(/C=N/n3c(COc4ccccc4Cl)n[nH]c3=S)o2)c([N+](=O)[O-])c1`, for which the GI50 is 30.4 µM in the assay on A549 NSCLC; 34.1 µM with K-562 leukemia; 32.3 µM in the assay with SF-268 CNS; more than 100 µM with SNB-75 CNS; 28.4 µM in the assay with UACC-257 melanoma. In addition, the TGI was 87.9 µM in the assay on A549 NSCLC; more than 100 µM in the assay with K-562 leukemia; 91.7 µM in the assay with SF-268 CNS; more than 100 µM with SNB-75 CNS; 63.5 µM in the assay with UACC-257 melanoma.

`COc1ccc2c(c1)/C(=C\c1c[nH]c3ccc(OC)cc13)C(=O)N2`: the GI50 with HOP-92 NSCLC is 1.48 µM; in the assay on K-562 leukemia, 2.21 µM; in the assay on SF-268 CNS, 3.61 µM; in the assay on SF-539 CNS, 3.95 µM; with SK-MEL-5 melanoma it was 3.02 µM; with SNB-75 CNS, 1.94 µM. Further, the TGI in the assay on HOP-92 NSCLC was 6.55 µM; with K-562 leukemia, 15.5 µM; in the assay with SF-268 CNS it was 15.3 µM; with SF-539 CNS, 15.6 µM; with SK-MEL-5 melanoma it was 12.5 µM; in the assay on SNB-75 CNS it was 9.22 µM.

As to `CN1CCN(c2cc3nc4ccccc4n(-c4ccc(Cl)cc4)c-3cc2=N)CC1`, the GI50 with A549 NSCLC was 24.1 µM; with HOP-92 NSCLC, 28.7 µM; in the assay on K-562 leukemia, 0.356 µM; in the assay with SF-268 CNS, 32.1 µM; in the assay with SF-539 CNS, 26.6 µM; in the assay on SK-MEL-5 melanoma it was 16.3 µM. Further, the GI50 in the assay with UACC-257 melanoma is 19.2 µM. Moreover, the TGI with A549 NSCLC is 60.8 µM; in the assay on HOP-92 NSCLC, 94.8 µM; with K-562 leukemia, 23.5 µM; with SF-268 CNS, more than 100 µM; in the assay with SF-539 CNS, 73.7 µM; in the assay on SK-MEL-5 melanoma it was 32.7 µM. In the assay on UACC-257 melanoma, the TGI is 39.2 µM.

In the case of `COc1ccc2c(c1)C(=O)c1c-2c(N2CCNCC2)nc2ccccc12`, the GI50 is 3.3 µM in the assay on A549 NSCLC; 2.64 µM with K-562 leukemia; 2.14 µM with SF-268 CNS; 3.8 µM in the assay on SF-539 CNS; 11.3 µM in the assay with SK-MEL-5 melanoma; 10.9 µM in the assay on SNB-75 CNS. In the assay on UACC-257 melanoma, the GI50 is 2.38 µM. Besides, the TGI in the assay on A549 NSCLC was 15.8 µM; with K-562 leukemia it was more than 100 µM; with SF-268 CNS it was 11.9 µM; in the assay with SF-539 CNS it was 12.7 µM; in the assay on SK-MEL-5 melanoma, 24.7 µM; with SNB-75 CNS, 26.5 µM. Further, the TGI in the assay with UACC-257 melanoma was 5.11 µM.

For the molecule `COc1ccc(-c2onc(-c3c(C)cc(C)cc3C)c2C2=NCCN2)cc1`, the TGI with A549 NSCLC was more than 100 µM; in the assay on K-562 leukemia, more than 100 µM; in the assay on SF-268 CNS, more than 100 µM; in the assay on SF-539 CNS, 44.1 µM; with SK-MEL-5 melanoma, 36.6 µM; with SNB-75 CNS, more than 100 µM. The TGI in the assay with UACC-257 melanoma stood at 46.1 µM.

`Nc1cc2cccc[n+]2c2cccc(Cl)c12`: the GI50 is 30.9 µM in the assay on A549 NSCLC; 51 µM with HOP-92 NSCLC; 11.2 µM in the assay with K-562 leukemia; 4.94 µM in the assay on SF-268 CNS; 23 µM with SF-539 CNS; 4.94 µM in the assay with SK-MEL-5 melanoma. For the same molecule, the GI50 with UACC-257 melanoma was 11.3 µM. Further, the TGI was 35.6 µM in the assay on SF-268 CNS, 71.2 µM in the assay with SF-539 CNS, 17.8 µM in the assay on SK-MEL-5 melanoma and 27.4 µM with UACC-257 melanoma.

Turning to `COc1ccc2c(c1)C(=O)c1c-2n(CCCN)c(=O)c2cc([N+](=O)[O-])ccc12`, the GI50 in the assay on K-562 leukemia, with SF-268 CNS, in the assay with SF-539 CNS and with UACC-257 melanoma was less than 0.01 µM each time. The TGI in the assay with K-562 leukemia is 1.31 µM; in the assay on SF-268 CNS it was less than 0.01 µM; in the assay with SF-539 CNS, less than 0.01 µM; in the assay with UACC-257 melanoma, 0.736 µM.

Regarding `Cc1c2ccncc2c(C)c2c1c1cc(CO)ccc1n2C`, the GI50 in the assay with A549 NSCLC was 0.416 µM; in the assay with HOP-92 NSCLC it was 0.636 µM; in the assay with K-562 leukemia, 0.473 µM; in the assay with SF-268 CNS, 0.468 µM; in the assay on SF-539 CNS, 0.73 µM; in the assay with SK-MEL-5 melanoma it was 1.08 µM. Also, the GI50 in the assay with SNB-75 CNS is 1.07 µM. Besides, the TGI with A549 NSCLC was found to be 2.81 µM; with HOP-92 NSCLC, 4.87 µM; with K-562 leukemia, 5.82 µM; with SF-268 CNS, 7.81 µM; in the assay with SF-539 CNS it was 4.2 µM; with SK-MEL-5 melanoma it was 2.7 µM. In the assay with SNB-75 CNS, this molecule came in with a TGI of 2.7 µM.

As for `CCN(CC)C(=O)COc1cc2c(O)c3c(O)c(C)c4c(c13)C(=O)C(C)(OC=CC(OC)C(C)C(OC(C)=O)C(C)C(O)C(C)C(O)C(C)C=CC=C(C)C(=O)N2)O4` (stereo unspecified), the TGI in the assay on A549 NSCLC, in the assay on HOP-92 NSCLC, with K-562 leukemia, in the assay with SF-268 CNS, in the assay on SK-MEL-5 melanoma and in the assay on SNB-75 CNS was more than 100 µM in each case. In the assay with UACC-257 melanoma, the TGI was more than 100 µM.
